Test results published in US7666890B2, “Synthesis and herbicidal activity of 1- (2-substituted benzo[d]thiazol-5-yl)-1H-1,2,4-triazol-5(4H)-one derivatives” (Huazhong Normal University, priority 2007, dated 2010).

Tests used:
Assay in all cases: Test of herbicidal activities (greenhouse pot method)
Assay type in all cases: in vivo
Details in all cases: single dose 300 g ai./h, treated before/after germination, 15 days later, greenhouse pot
[1] = test system: Amaranthus retroflexus
Outline: (§1)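 Greenhouse pot test on weeds grown in mixed garden/mountain/humus soil at 15-30° C; pre- and post-emergence spray at a single dose of 300 g ai./h via automatic spraying tower (0.2 MPa). Inhibition scored after 15 days into five levels A (90-100%) to E (<50%); triplicate with blank control.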

[2] = test system: Brassica juncea
Outline: as §1

[3] = test system: Chenopodium album
Outline: as §1

[4] = test system: Digiatria sanguinalis
Outline: as §1

[5] = test system: Echinochloa crusgalli
Outline: as §1

[6] = test system: Setaria viridis
Outline: as §1

## CSc1nc2cc(-n3nc(C)n(C(F)F)c3=O)c(Br)cc2s1 [Compound 79]
[1]
  Herbicidal activity Amaranthus retroflexus (inhibition level): B (80 ≦ B < 90%)
[2]
  Herbicidal activity Brassica juncea (inhibition level): B (80 ≦ B < 90%)
[3]
  Herbicidal activity Chenopodium album (inhibition level): C (60 ≦ C < 80%)
[4]
  Herbicidal activity Digiatria sanguinalis (inhibition level): A (90 ≦ A ≦ 100%)
[5]
  Herbicidal activity Echinochloa crusgalli (inhibition level): B (80 ≦ B < 90%)
[6]
  Herbicidal activity Setaria viridis (inhibition level): B (80 ≦ B < 90%)

## CCOC(=O)C(C)S(=O)(=O)c1nc2cc(-n3nc(C)n(C(F)F)c3=O)c(Cl)cc2s1 (stereo not drawn) [Compound 67]
[1]
  Herbicidal activity Amaranthus retroflexus (inhibition level): C (60 ≦ C < 80%)
[2]
  Herbicidal activity Brassica juncea (inhibition level): B (80 ≦ B < 90%)
[3]
  Herbicidal activity Chenopodium album (inhibition level): B (80 ≦ B < 90%)
[4]
  Herbicidal activity Digiatria sanguinalis (inhibition level): A (90 ≦ A ≦ 100%)
[5]
  Herbicidal activity Echinochloa crusgalli (inhibition level): C (60 ≦ C < 80%)
[6]
  Herbicidal activity Setaria viridis (inhibition level): B (80 ≦ B < 90%)

## Cc1ccccc1CS(=O)(=O)c1nc2cc(-n3nc(C)n(C(F)F)c3=O)c(F)cc2s1 [Compound 43]
[1]
  Herbicidal activity Amaranthus retroflexus (inhibition level): A (90 ≦ A ≦ 100%)
[2]
  Herbicidal activity Brassica juncea (inhibition level): C (60 ≦ C < 80%)
[3]
  Herbicidal activity Chenopodium album (inhibition level): C (60 ≦ C < 80%)
[4]
  Herbicidal activity Digiatria sanguinalis (inhibition level): D (50 ≦ D < 60%)
[5]
  Herbicidal activity Echinochloa crusgalli (inhibition level): D (50 ≦ D < 60%)
[6]
  Herbicidal activity Setaria viridis (inhibition level): C (60 ≦ C < 80%)

## CCSc1nc2cc(-n3nc(C)n(C(F)F)c3=O)c(F)cc2s1 [Compound 84]
[1]
  Herbicidal activity Amaranthus retroflexus (inhibition level): B (80 ≦ B < 90%)
[2]
  Herbicidal activity Brassica juncea (inhibition level): C (60 ≦ C < 80%)
[3]
  Herbicidal activity Chenopodium album (inhibition level): A (90 ≦ A ≦ 100%)
[4]
  Herbicidal activity Digiatria sanguinalis (inhibition level): A (90 ≦ A ≦ 100%)
[5]
  Herbicidal activity Echinochloa crusgalli (inhibition level): A (90 ≦ A ≦ 100%)
[6]
  Herbicidal activity Setaria viridis (inhibition level): B (80 ≦ B < 90%)

## CCCCSc1nc2cc(-n3nc(C(F)(F)F)n(C(F)F)c3=O)c(Cl)cc2s1 [Compound 126]
[1]
  Herbicidal activity Amaranthus retroflexus (inhibition level): B (80 ≦ B < 90%)
[2]
  Herbicidal activity Brassica juncea (inhibition level): A (90 ≦ A ≦ 100%)
[3]
  Herbicidal activity Chenopodium album (inhibition level): B (80 ≦ B < 90%)
[4]
  Herbicidal activity Digiatria sanguinalis (inhibition level): A (90 ≦ A ≦ 100%)
[5]
  Herbicidal activity Echinochloa crusgalli (inhibition level): B (80 ≦ B < 90%)
[6]
  Herbicidal activity Setaria viridis (inhibition level): C (60 ≦ C < 80%)

## CCS(=O)(=O)c1nc2cc(-n3nc(C)n(C(F)F)c3=O)c(Cl)cc2s1 [Compound 58]
[1]
  Herbicidal activity Amaranthus retroflexus (inhibition level): A (90 ≦ A ≦ 100%)
[2]
  Herbicidal activity Brassica juncea (inhibition level): B (80 ≦ B < 90%)
[3]
  Herbicidal activity Chenopodium album (inhibition level): A (90 ≦ A ≦ 100%)
[4]
  Herbicidal activity Digiatria sanguinalis (inhibition level): A (90 ≦ A ≦ 100%)
[5]
  Herbicidal activity Echinochloa crusgalli (inhibition level): B (80 ≦ B < 90%)
[6]
  Herbicidal activity Setaria viridis (inhibition level): C (60 ≦ C < 80%)

## Cc1nn(-c2cc3nc(S(=O)(=O)Cc4cccc(Cl)c4)sc3cc2Cl)c(=O)n1C(F)F [Compound 40]
[1]
  Herbicidal activity Amaranthus retroflexus (inhibition level): B (80 ≦ B < 90%)
[2]
  Herbicidal activity Brassica juncea (inhibition level): B (80 ≦ B < 90%)
[3]
  Herbicidal activity Chenopodium album (inhibition level): D (50 ≦ D < 60%)
[4]
  Herbicidal activity Digiatria sanguinalis (inhibition level): C (60 ≦ C < 80%)
[5]
  Herbicidal activity Echinochloa crusgalli (inhibition level): E (E < 50%)
[6]
  Herbicidal activity Setaria viridis (inhibition level): C (60 ≦ C < 80%)

## Cc1nn(-c2cc3nc(SCn4cnc5ccccc5c4=O)sc3cc2F)c(=O)n1C(F)F [Compound 74]
[1]
  Herbicidal activity Amaranthus retroflexus (inhibition level): B (80 ≦ B < 90%)
[2]
  Herbicidal activity Brassica juncea (inhibition level): B (80 ≦ B < 90%)
[3]
  Herbicidal activity Chenopodium album (inhibition level): C (60 ≦ C < 80%)
[4]
  Herbicidal activity Digiatria sanguinalis (inhibition level): B (80 ≦ B < 90%)
[5]
  Herbicidal activity Echinochloa crusgalli (inhibition level): A (90 ≦ A ≦ 100%)
[6]
  Herbicidal activity Setaria viridis (inhibition level): A (90 ≦ A ≦ 100%)

## CCCCS(=O)(=O)c1nc2cc(-n3nc(C)n(C(F)F)c3=O)c(F)cc2s1 [Compound 63]
[1]
  Herbicidal activity Amaranthus retroflexus (inhibition level): A (90 ≦ A ≦ 100%)
[2]
  Herbicidal activity Brassica juncea (inhibition level): B (80 ≦ B < 90%)
[3]
  Herbicidal activity Chenopodium album (inhibition level): A (90 ≦ A ≦ 100%)
[4]
  Herbicidal activity Digiatria sanguinalis (inhibition level): A (90 ≦ A ≦ 100%)
[5]
  Herbicidal activity Echinochloa crusgalli (inhibition level): B (80 ≦ B < 90%)
[6]
  Herbicidal activity Setaria viridis (inhibition level): C (60 ≦ C < 80%)

## Cc1nn(-c2cc3nc(SCc4ccco4)sc3cc2F)c(=O)n1C(F)F [Compound 29]
[1]
  Herbicidal activity Amaranthus retroflexus (inhibition level): C (60 ≦ C < 80%)
[2]
  Herbicidal activity Brassica juncea (inhibition level): C (60 ≦ C < 80%)
[3]
  Herbicidal activity Chenopodium album (inhibition level): B (80 ≦ B < 90%)
[4]
  Herbicidal activity Digiatria sanguinalis (inhibition level): B (80 ≦ B < 90%)
[5]
  Herbicidal activity Echinochloa crusgalli (inhibition level): C (60 ≦ C < 80%)
[6]
  Herbicidal activity Setaria viridis (inhibition level): B (80 ≦ B < 90%)

## Cc1nn(-c2cc3nc(SCc4cccc([N+](=O)[O-])c4)sc3cc2F)c(=O)n1C(F)F [Compound 13]
[1]
  Herbicidal activity Amaranthus retroflexus (inhibition level): A (90 ≦ A ≦ 100%)
[2]
  Herbicidal activity Brassica juncea (inhibition level): B (80 ≦ B < 90%)
[3]
  Herbicidal activity Chenopodium album (inhibition level): C (60 ≦ C < 80%)
[4]
  Herbicidal activity Digiatria sanguinalis (inhibition level): B (80 ≦ B < 90%)
[5]
  Herbicidal activity Echinochloa crusgalli (inhibition level): C (60 ≦ C < 80%)
[6]
  Herbicidal activity Setaria viridis (inhibition level): C (60 ≦ C < 80%)

## Cc1ccc([N+](=O)[O-])c(CS(=O)(=O)c2nc3cc(-n4nc(C)n(C(F)F)c4=O)c(F)cc3s2)c1 [Compound 46]
[1]
  Herbicidal activity Amaranthus retroflexus (inhibition level): A (90 ≦ A ≦ 100%)
[2]
  Herbicidal activity Brassica juncea (inhibition level): E (E < 50%)
[3]
  Herbicidal activity Chenopodium album (inhibition level): C (60 ≦ C < 80%)
[4]
  Herbicidal activity Digiatria sanguinalis (inhibition level): B (80 ≦ B < 90%)
[5]
  Herbicidal activity Echinochloa crusgalli (inhibition level): D (50 ≦ D < 60%)
[6]
  Herbicidal activity Setaria viridis (inhibition level): B (80 ≦ B < 90%)

## C=CCS(=O)(=O)c1nc2cc(-n3nc(C)n(C(F)F)c3=O)c(F)cc2s1 [Compound 66]
[1]
  Herbicidal activity Amaranthus retroflexus (inhibition level): B (80 ≦ B < 90%)
[2]
  Herbicidal activity Brassica juncea (inhibition level): B (80 ≦ B < 90%)
[3]
  Herbicidal activity Chenopodium album (inhibition level): B (80 ≦ B < 90%)
[4]
  Herbicidal activity Digiatria sanguinalis (inhibition level): B (80 ≦ B < 90%)
[5]
  Herbicidal activity Echinochloa crusgalli (inhibition level): A (90 ≦ A ≦ 100%)
[6]
  Herbicidal activity Setaria viridis (inhibition level): A (90 ≦ A ≦ 100%)
